The text below walks through data of EPA's ToxValDB 9.5.

One data set has as its system Oryctolagus sp. As to conditions: for LD50: acute.
The test system of data set [1] is Rattus norvegicus. Conditions: for LD50 / LC50: acute.
Data set [2] concerns Rattus norvegicus. As to conditions: subchronic; duration: 13 weeks; oral; gavage; M/F; Fischer 344; Deaths + Histopathology: Liver-Vacuolar change Liver/bile duct- Hyperplasia Liver/centrilobular - necrosis Kidney-Toxic nephropathy Salivary….
Data set [3] deals with Rattus norvegicus. As to conditions: subchronic; oral; gavage; M/F; hepatic lesions.
A further data set concerns Mus musculus. As to conditions: short-term; duration: 14 days; oral; gavage; M; CD1; hepatic.
Data set [4] deals with Rattus norvegicus. Conditions: chronic; duration: 2 years; oral; gavage; M/F; Fischer 344; hepatic.
[5] abbreviates: developmental, duration: 14 days, oral, gavage, Wistar.
The mark [6] stands for this setting: short-term, duration: 12 days, inhalation, F, Crl:CD1.
Where [7] appears, read: short-term, duration: 28 days, oral, gavage, Wistar.
Setting [8] is: reproduction developmental, duration: 13 days, oral, gavage, F, New Zealand.

≈ marks a conversion by molar mass, not a printed value. Where “and” joins values, the source holds several entries; their conditions need not be identical. Identical values can stand only once. Bounds are passed on as bounds.

The LD50 is the dose at which mortality reaches 50%. Low values mean a more toxic substance, high ones a less toxic substance. One may read the LOAEL as the lowest tested level that showed an adverse finding. The NOAEL is the highest dose or exposure tested at which no adverse effect was seen.

Consider `O=c1[nH]c(=O)[nH]c(=O)[nH]1` [Cyanuric acid], for which the LD50 in the data set on Oryctolagus sp. (dermal, occlusive, New Zealand) is greater than 5000 mg/kg; in the data set on Rattus norvegicus [1] (oral, gavage, Sprague-Dawley) it was greater than 5000 mg/kg.
As for `C=C(C#N)C(=O)OCC` [Ethyl cyanoacrylate], the LD50 with Oryctolagus sp. (dermal, occlusive, New Zealand) is greater than 2000 mg/kg; in the data set on Rattus norvegicus [1] (oral, gavage) it was greater than 5000 mg/kg. For the same compound, the LC50 in the data set with Rattus norvegicus [1] (inhalation, Wistar) is less than 21.1 µg/mL.
Turning to `C1OCOCO1` [1,3,5-Trioxane], the LD50 with Oryctolagus sp. (dermal) is greater than 3980 mg/kg; in the data set on Rattus norvegicus [1] (oral, gavage) it was 8190 mg/kg. The LC50 with Rattus norvegicus [1] (inhalation) was greater than 39200 mg/m3. In addition, the LOAEL in the data set with Rattus norvegicus [1] (setting [5]) was found to be 315 mg/kg-day; with Rattus norvegicus [1] (reproduction developmental, duration: 14 days, oral, gavage, F, Wistar), 100 mg/kg-day; with Rattus norvegicus [1] (setting [6]) it was 3630 mg/m3; in the data set with Rattus norvegicus [1] (setting [7]) it was 1000 mg/kg-day. For the same compound, the NOAEL in the data set with Rattus norvegicus [1] (setting [5]) worked out at 100 mg/kg-day; in the data set with Rattus norvegicus [1] (setting [6]), 379 mg/m3; in the data set on Rattus norvegicus [1] (setting [7]), 200 mg/kg-day.
As for `ClC1=C(Cl)C2(Cl)C3CCC4C(CCC3C1(Cl)C2(Cl)Cl)C1(Cl)C(Cl)=C(Cl)C4(Cl)C1(Cl)Cl` (stereo unspecified) [Dechlorane Plus], the LD50 with Oryctolagus sp. (dermal) is greater than 8000 mg/kg; in the data set on Rattus norvegicus [1] (oral, gavage, Sprague-Dawley), greater than 3160 mg/kg; in the data set with Rattus norvegicus [1] (oral, gavage, Wistar), greater than 25000 mg/kg. Moreover, the LOAEC with Oryctolagus sp. (reproduction developmental, duration: 4 weeks, dermal, non-occlusive, New Zealand, generation: F0) was determined as 2000 mg/kg-day. Moreover, the LC50 with Rattus norvegicus [1] (inhalation, particle) was greater than 300 µg/mL; in the data set with Rattus norvegicus [1] (inhalation, particle, Charles-River), greater than 2.25 µg/mL. In addition, the NOAEL in the data set on Rattus norvegicus [1] (reproduction developmental, duration: 13 weeks, oral, diet, Crl, generation: F0) was 100000 ppm. Also, the LOAEL with Rattus norvegicus [1] (reproduction developmental, duration: 28 days, inhalation, particle, Charles River COB, generation: F0) came to 0.64 mg/L.
Take `CCCCCCCC/C=C/CCCCCCCCN.F` [9-Octadecen-1-amine, hydrofluoride]: the LOAEL in the data set with Oryctolagus sp. (setting [8]) was 1.2 mg/kg-day. The NOAEL in the data set on Rattus norvegicus [1] (reproduction developmental, oral, gavage, Long-Evans, generation: F0) turned out to be 6 mg/kg-day; with Rattus norvegicus [1] (reproduction developmental, oral, gavage, Long-Evans, generation: F1) it was 30 mg/kg-day.
As to `O=C(OCC1CC=CCC1)C1CC=CCC1` (stereo unspecified), the LD50 in the data set with Oryctolagus sp. (dermal, occlusive, New Zealand) is 5010 mg/kg and ≥ 12300 mg/kg and ≤ 13400 mg/kg; with Rattus norvegicus [1] (oral, gavage), 2840 mg/kg; with Rattus norvegicus [1] (oral, gavage, Sprague-Dawley) it was ≥ 1360 mg/kg and ≤ 2390 mg/kg.
`CCNc1cccc(C)c1` [N-Ethyl-3-methylaniline]: the LD50 in the data set on Oryctolagus sp. (dermal, New Zealand) was greater than 2000 mg/kg; in the data set on Rattus norvegicus [1] (oral, Sprague-Dawley), 787 mg/kg and 478 mg/kg; with Rattus norvegicus [1] (oral, gavage, Wistar) it was 650 mg/kg. This compound yielded an LC50 with Rattus norvegicus [1] (inhalation) of 2.4 µg/mL (≈ 17.8 µM). Besides, the NOAEL with Rattus norvegicus [1] (short-term, duration: 2 weeks, inhalation, Sprague-Dawley) is 31 mg/m3.
In the case of `CCCCNC(=O)OCC#CI` [3-Iodo-2-propynyl-N-butylcarbamate], the NOAEL with Oryctolagus sp. (setting [8]) amounted to 20 mg/kg-day; with Oryctolagus sp. (reproduction developmental, duration: 13 days, oral, gavage, New Zealand, generation: F1) it was 50 mg/kg-day; in the data set with Oryctolagus sp. (subchronic, duration: 90 days, oral, diet, New Zealand), 16.5 mg/kg-day. Besides, the LD50 with Rattus norvegicus [1] (oral, gavage, Sprague-Dawley) is 1800 mg/kg and 1470 mg/kg and 1060 mg/kg.
`CCCCCCCCCCCCCCCCCCOP1OCC2(CO1)COP(OCCCCCCCCCCCCCCCCCC)OC2` (stereo unspecified) [Distearyl pentaerythritol diphosphite]: the 50% lethal dose (LD50) with Oryctolagus sp. (dermal, New Zealand) was greater than 2000 mg/kg; with Rattus norvegicus [1] (oral, gavage, Sherman Wistar), greater than 10000 mg/kg. Also, the NOAEL in the data set with Rattus norvegicus [1] (subchronic, duration: 90 days, oral, diet, Sprague-Dawley) was greater than 288 mg/kg-day.
`ClC(Br)Br` [Chlorodibromomethane]: the NOEL is 30 mg/kg-day with Rattus norvegicus [2]; 21.4 mg/kg-day and 30 mg/kg-day with Rattus norvegicus [3]. Moreover, the LOAEL in the data set with Rattus norvegicus [3] was 60 mg/kg-day; in the data set on Mus musculus it was 37 mg/kg-day; with Rattus norvegicus [4] it was 40 mg/kg-day.
For `CC1COC(=O)O1` (stereo unspecified) [Propylene carbonate], the LD50 with Oryctolagus sp. (dermal, occlusive, New Zealand) is greater than 3000 mg/kg; in the data set with Rattus norvegicus [1] (oral, Sprague-Dawley) it was greater than 5000 mg/kg. The NOAEL in the data set with Rattus norvegicus [1] (developmental, duration: 6 days, oral, gavage, Sprague-Dawley) is 5000 mg/kg-day; with Rattus norvegicus [1] (reproduction developmental, duration: 13 weeks, oral, gavage, Sprague-Dawley, generation: F0) it was 5000 mg/kg-day; in the data set on Rattus norvegicus [1] (reproduction developmental, duration: 13 weeks, oral, gavage, Sprague-Dawley, generation: F1) it was 5000 mg/kg-day; in the data set with Rattus norvegicus [1] (reproduction developmental, duration: 13 weeks, oral, gavage, Sprague-Dawley, generation: F2) it was 5000 mg/kg-day; in the data set with Rattus norvegicus [1] (reproduction developmental, duration: 93 days, inhalation, generation: F0), 1000 mg/m3; with Rattus norvegicus [1] (reproduction developmental, duration: 93 days, inhalation, generation: F1), 1000 mg/m3. Further, the NOAEL in the data set on Rattus norvegicus [1] (reproduction developmental, duration: 93 days, inhalation, generation: F2) worked out at 1000 mg/m3; in the data set with Rattus norvegicus [1] (subchronic, duration: 90 days, oral, gavage, Sprague-Dawley), 5000 mg/kg-day.
